Converted amounts (≈) assume the structure as drawn. Like-named read-outs stand apart in the source and are kept apart here.
Legend:
TPC-1 = experiment: MTT viability assay, TPC-1 papillary thyroid carcinoma cells; format: cell-based, human; settings: for IC50: Homo sapiens, TPC1; for Cell viability: TPC-1, 24 h
Excerpt: (§1) Cell lines of different origins were used in the study and grouped as follows: prostate panel (human prostate carcinomas: DU145, derived from metastatic site: brain; grade IV PC3, derived from metastatic site: bone; LNCaP, derived from the metastatic site: lymph node; prostate epithelial, PNT2), colon panel (colorectal adenocarcinomas: HT29, originating from a primary tumor; Duke’s type C DLD-1, with the potential to lymph node metastasis; highly metastatic HCT116; colon epithelial cells CCD 841 CoN), thyroid panel (follicular thyroid carcinoma FTC133, anaplastic thyroid carcinoma 8505C, papillary thyroid carcinoma TPC-1, normal thyroid follicular epithelial Nthy-ori 3–1), breast panel (ER-positive breast adenocarcinoma MCF7, ER-negative breast adenocarcinoma MDA-MB-231, breast epithelial MCF10A), brain panel (neuroblastoma SH-SY5Y, glioblastoma U-87 MG, murine astrocytes C8D1A). All cell lines were purchased from Merck (Darmstadt, Germany).
(§2) Cells were grown under standard conditions (37 °C, 5% CO2) and culture media (DMEM/F12 for PNT2, PC3, FTC133, 8505 C, MDA-MB-231, TPC-1; DMEM Low Glucose for DU145; DMEM High Glucose for HCT116, DLD-1, SH-SY5Y, U87MG, C8D1A; MEM with NEAA for MCF7; MEM for CCD 841 CoN; McCoy’s for HT29; RPMI1640 with sodium pyruvate for LNCaP; DMEM/F12 with 20 ng/mL epidermal growth factor (EGF), 10 μg/mL insulin, 0.5 μg/mL hydrocortisone, 100 ng/mL cholera toxin) for MCF10A), supplemented with 10% fetal bovine serum (FBS) or 5% donor horse serum for MCF10A, and 1% antibiotics solution (10,000 U penicillin and 10 mg streptomycin/mL). The tested substances were prepared as 10 mg/mL stock solutions in DMSO and further diluted in the culture media to the working concentrations. Cells were treated with UA enantiomers at the concentration range of 0–50 µg/mL. The influence of DMSO on cell viability was also examined, with the final concentration […], and no toxic effect was noted.
(§3) The cells were seeded onto 96-well plates at a density of 1.5 × 10^4 cells/well. After 24 h UA enantiomers were added. Cell viability was determined after 24, 48, and 72 h by the MTT assay, as described previously. Doxorubicin was used as a reference cytostatic drug. All analyses were performed in triplicate; cell viability was expressed as % of control, untreated cells (mean ± SD), and IC50 values (concentration at which cell viability is inhibited by 50%), if possible.
(§4) The selectivity index (SI) was calculated, if possible, by dividing the IC50 value obtained for non-cancerous cells line by the IC50 values obtained for appropriate cancer cell line, as described previously. […] The values above 3 indicate good selectivity.

HepG2 cells = tested on: HepG2 cells; set-up: method as in PMID 40368021; settings: cited from earlier work
MCF7 = experiment: MTT viability assay, MCF7 breast cancer cells; format: cell-based, human; settings: for IC50: Homo sapiens; for Cell viability: MCF7, 24 h
Excerpt: as §1, §2, §3, §4

FTC133 = experiment: MTT viability assay, FTC133 follicular thyroid carcinoma cells; format: cell-based, human; settings: for Cell viability: FTC-133, 24 h; for IC50: Homo sapiens, FTC-133
Excerpt: as §1, §2, §3, §4

WM793 cells = tested on: WM793 cells; set-up: method as in PMID 34577645; settings: WM793, 48 h; cited from earlier work
CCD 841 CoN = experiment: MTT viability assay, normal colon epithelial cells; format: cell-based, human; settings: for Cell viability: CCD 841 CoN, 24 h; for IC50: Homo sapiens, CCD-841CoN
Excerpt: as §1, §2, §3

DLD-1 = experiment: MTT viability assay, DLD-1 colon cancer cells; format: cell-based, human; settings: for Cell viability: DLD-1, 24 h; for IC50: Homo sapiens
Excerpt: as §1, §2, §3

DU145 cells = settings: cited from earlier work
MCF7 cells = tested on: MCF7 cells; set-up: method as in not printed ('another' study); settings: MCF7, 72 h, ref not given ('another' study), cited from earlier work
Nthy ori 3-1 = experiment: MTT viability assay, normal thyroid follicular epithelial cells; format: cell-based, human; settings: for IC50: Homo sapiens; for Cell viability: Nthy ori 3-1, 24 h
Excerpt: as §1, §2, §3

PNT2 = experiment: MTT viability assay, normal prostate epithelial cells; format: cell-based, human; settings: for IC50: Homo sapiens; for Cell viability: PNT2, 24 h
Excerpt: as §1, §2, §3

## CC(=O)C1=C(O)C=C2Oc3c(C(C)=O)c(O)c(C)c(O)c3[C@@]2(C)C1=O [UA(+), (+)-usnic acid]
TPC-1; TPC-1, 48 h
  IC50: > 50 µg/mL
TPC-1; TPC-1, 72 h
  IC50: 28.2 µg/mL (≈ 81.9 µM)
TPC-1; IC50 Nthy ori 3-1 / IC50 TPC-1, 72 h
  selectivity index (SI): 1.18
TPC-1; 2.5 µg/mL
  Cell viability: 101.62 % of control
TPC-1; 5 µg/mL
  Cell viability: 105.96 % of control
TPC-1; 10 µg/mL
  Cell viability: 105.31 % of control
TPC-1; 20 µg/mL
  Cell viability: 97.02 % of control
TPC-1; 30 µg/mL
  Cell viability: 95.96 % of control
TPC-1; 40 µg/mL
  Cell viability: 91.23 % of control
TPC-1; 50 µg/mL
  Cell viability: 87.50 % of control
HepG2 cells; HepG2, 48 h
  IC50 (hepatotoxicity): 28.2 µg/mL (≈ 81.9 µM)
HepG2 cells; HepG2, 72 h
  IC50 (hepatotoxicity): 24.4 µg/mL (≈ 70.9 µM)
MCF7; MCF7, 48 h
  IC50: > 50 µg/mL
MCF7; MCF7, 72 h
  IC50: > 50 µg/mL
MCF7; 2.5 µg/mL
  Cell viability: 106.54 % of control
MCF7; 5 µg/mL
  Cell viability: 108.77 % of control
MCF7; 10 µg/mL
  Cell viability: 108.15 % of control
MCF7; 20 µg/mL
  Cell viability: 103.95 % of control
MCF7; 30 µg/mL
  Cell viability: 89.38 % of control
MCF7; 40 µg/mL
  Cell viability: 87.41 % of control
MCF7; 50 µg/mL
  Cell viability: 87.78 % of control
MCF7; MCF7 cells, 72 h
  selectivity index (SI): ~3
FTC133; 2.5 µg/mL
  Cell viability: 92.33 % of control
FTC133; 5 µg/mL
  Cell viability: 89.00 % of control
FTC133; 10 µg/mL
  Cell viability: 89.83 % of control
FTC133; 20 µg/mL
  Cell viability: 93.83 % of control
FTC133; 30 µg/mL
  Cell viability: 74.75 % of control
FTC133; 40 µg/mL
  Cell viability: 75.75 % of control
FTC133; 50 µg/mL
  Cell viability: 78.08 % of control
FTC133; FTC133, 48 h
  IC50: > 50 µg/mL
FTC133; FTC133, 72 h
  IC50: 35.1 µg/mL (≈ 102 µM)
FTC133; IC50 Nthy ori 3-1 / IC50 FTC133, 72 h
  selectivity index (SI): 0.95
WM793 cells
  IC50: 30.05 µg/mL (≈ 87.3 µM)
CCD 841 CoN; 2.5 µg/mL
  Cell viability: 104.22 % of control
CCD 841 CoN; 5 µg/mL
  Cell viability: 103.61 % of control
CCD 841 CoN; 10 µg/mL
  Cell viability: 99.72 % of control
CCD 841 CoN; 20 µg/mL
  Cell viability: 111.77 % of control
CCD 841 CoN; 30 µg/mL
  Cell viability: 101.26 % of control
CCD 841 CoN; 40 µg/mL
  Cell viability: 95.35 % of control
CCD 841 CoN; 50 µg/mL
  Cell viability: 96.52 % of control
CCD 841 CoN; 48 h
  IC50: > 50 µg/mL
CCD 841 CoN; 72 h
  IC50: > 50 µg/mL
DLD-1; 2.5 µg/mL
  Cell viability: 96.51 % of control
DLD-1; 5 µg/mL
  Cell viability: 89.29 % of control
DLD-1; 10 µg/mL
  Cell viability: 75.63 % of control
DLD-1; 20 µg/mL
  Cell viability: 82.11 % of control
DLD-1; 30 µg/mL
  Cell viability: 71.08 % of control
DLD-1; 40 µg/mL
  Cell viability: 68.28 % of control
DLD-1; 50 µg/mL
  Cell viability: 68.46 % of control
DLD-1; DLD-1, 48 h
  IC50: 26.1 µg/mL (≈ 75.8 µM)
DLD-1; DLD-1, 72 h
  IC50: 19.6 µg/mL (≈ 56.9 µM)
DU145 cells; DU145, 48 h, recalculated from µM by the authors
  IC50: 14.5 µg/mL
DU145 cells; DU145, 48 h, read-out: IC50
  IC50: 42.1 µM
DU145 cells; DU145, 72 h, recalculated from µM by the authors
  IC50: 19.7 µg/mL
DU145 cells; DU145, 72 h, read-out: IC50
  IC50: 57.4 µM
MCF7 cells; recalculated from µM by the authors
  IC50: 36.3 µg/mL
MCF7 cells; read-out: IC50
  IC50: 105 µM
Nthy ori 3-1; Nthy-ori 3-1, 48 h
  IC50: > 50 µg/mL
Nthy ori 3-1; Nthy-ori 3-1, 72 h
  IC50: 33.2 µg/mL (≈ 96.4 µM)
Nthy ori 3-1; 2.5 µg/mL
  Cell viability: 97.57 % of control
Nthy ori 3-1; 5 µg/mL
  Cell viability: 100.56 % of control
Nthy ori 3-1; 10 µg/mL
  Cell viability: 95.69 % of control
Nthy ori 3-1; 20 µg/mL
  Cell viability: 93.96 % of control
Nthy ori 3-1; 30 µg/mL
  Cell viability: 94.51 % of control
Nthy ori 3-1; 40 µg/mL
  Cell viability: 97.29 % of control
Nthy ori 3-1; 50 µg/mL
  Cell viability: 97.71 % of control
PNT2; PNT2, 48 h
  IC50: 37.4 µg/mL (≈ 109 µM)
PNT2; PNT2, 72 h
  IC50: 20.4 µg/mL (≈ 59.2 µM)
PNT2; 5 µg/mL
  Cell viability: 101.11 % of control
PNT2; 10 µg/mL
  Cell viability: 104.00 % of control
PNT2; 20 µg/mL
  Cell viability: 96.96 % of control
PNT2; 30 µg/mL
  Cell viability: 68.67 % of control
PNT2; 40 µg/mL
  Cell viability: 59.70 % of control
PNT2; 50 µg/mL
  Cell viability: 56.52 % of control

Source: article PMC12298648, “An Evaluation of the Cytotoxicity and Safety Profile of Usnic Acid for a Broad Panel of Human Cancers and Normal Cells with Respect to Its Enantiospecificity” (Molecules, 2025)
